Data set [1] is described as follows: pH of the tizanidine hydrochloride solutions. The following applies: Tizanidine.HCl aqueous solutions, no excipients. It is filed as physicochemical.
A short description of data set [2]: Local tolerability of intranasal aqueous solution. Type of data set: in vivo. The conditions noted are these: 45.00 mg/mL, pH 4.8. Here is the method:
The proposed formulations are calculated for a single puff of 50 µL/nostril.

The conditions of data set [3]: animal data, local administration; cited from earlier work.
Data set [4] is described as follows: Preliminary pharmacokinetics of tizanidine solutions in rabbits (IN, IM, PO). It is filed as in vivo. The conditions noted are these: 3.00 mg/kg of tizanidine hydrochloride. Here is the method:
Preliminary pharmacokinetic data in rabbits at the dose of 3.00 mg/kg of tizanidine hydrochloride by intranasal (IN), intramuscular (IM), and oral route (PO) were performed to test the intranasal absorption without any enhancer.

For data set [5] the following is noted: cited from earlier work.

This is an account of results in patent EP2338473A1, “Pharmaceutical dosage forms of tizanidine and administration routes thereof” (MDM S.p.A., priority 2009, dated 2011).

Where a name gives a salt, the structure may show the parent alone.

On to `Clc1ccc2nsnc2c1NC1=NCCN1` [Tizanidine.HCl], for which the pH in data set [1] came out at 4.8. In addition, the “tolerability by the nasal mucosa (redness or pain)” value in data set [2] was “tolerated by the nasal mucosa without any local side effect”.

By Tmax is commonly meant the time from dosing to the highest level. Take `Clc1ccc2nsnc2c1NC1=NCCN1` [Tizanidine, 5-chloro-N-(4,5-dihydro-1H-imidazol-2-yl)-2,1,3-benzothia-diazol-4-amine]: the “activity compared with clonidine” value in data set [3] is on record as “equivalent activity”. Further, the bioavailability entry in data set [4] (intranasal (IN) compared with intramuscular (IM)) was “close to that of intramuscular route (IM)”. The intranasal absorption entry in data set [4] (intranasal (IN), without any enhancer) was “rapidly absorbed”. Besides, in data set [5] (extensive first-pass effect), the “absorption by oral route” value was “well and rapidly absorbed”. Besides, in data set [5] (oral route), the T1/2z is 1 to 2 h and the time to peak (Tmax) was 1 to 2 h.
